Results taken from PMC3717557 (Journal of medicinal chemistry, 2012).
Converted amounts (≈) assume the structure as drawn. Where two headings read alike, the source gives them in different places.

Legend:
tadpoles = details: cited from earlier work
[1] = cited from earlier work
[2] = cited from earlier work; remark: listed apart in the source
[3] = cited from earlier work; remark: listed apart in the source
[4] = pKa of NH proton by UV absorbance pH titration; assay type: physicochemical; details: dilute phosphate buffer
[5] = Stability in buffer at 4°C; assay type: physicochemical; details: 0.01 M Tris/HCl pH 7.4, concentration close to saturation
GABAA receptor = details: concentrations close to anesthetic EC50 (65 μM); cited from earlier work
[6] = target: human α1β2γ2L GABAA receptor (Homo sapiens, UniProt P14867+P18507+P47870); assay type: cell-based
Sequence of human α1β2γ2L GABAA receptor (P47870 25-512 limits assumed, one chain of several): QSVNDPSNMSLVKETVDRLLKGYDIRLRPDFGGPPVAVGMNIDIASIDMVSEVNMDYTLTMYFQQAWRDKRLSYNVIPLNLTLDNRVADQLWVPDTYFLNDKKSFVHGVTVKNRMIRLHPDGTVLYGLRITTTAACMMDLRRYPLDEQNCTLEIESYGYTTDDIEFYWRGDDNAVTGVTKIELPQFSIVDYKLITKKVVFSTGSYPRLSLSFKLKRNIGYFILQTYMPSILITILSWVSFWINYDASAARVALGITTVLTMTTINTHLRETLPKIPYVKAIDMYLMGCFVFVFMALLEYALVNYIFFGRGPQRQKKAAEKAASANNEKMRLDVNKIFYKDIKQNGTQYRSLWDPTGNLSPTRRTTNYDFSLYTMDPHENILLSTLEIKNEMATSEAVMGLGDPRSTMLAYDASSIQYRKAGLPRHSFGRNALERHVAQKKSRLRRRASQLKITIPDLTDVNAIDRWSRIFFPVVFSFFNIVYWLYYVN
Sequence of human α1β2γ2L GABAA receptor (P18507 40-475, one chain of several): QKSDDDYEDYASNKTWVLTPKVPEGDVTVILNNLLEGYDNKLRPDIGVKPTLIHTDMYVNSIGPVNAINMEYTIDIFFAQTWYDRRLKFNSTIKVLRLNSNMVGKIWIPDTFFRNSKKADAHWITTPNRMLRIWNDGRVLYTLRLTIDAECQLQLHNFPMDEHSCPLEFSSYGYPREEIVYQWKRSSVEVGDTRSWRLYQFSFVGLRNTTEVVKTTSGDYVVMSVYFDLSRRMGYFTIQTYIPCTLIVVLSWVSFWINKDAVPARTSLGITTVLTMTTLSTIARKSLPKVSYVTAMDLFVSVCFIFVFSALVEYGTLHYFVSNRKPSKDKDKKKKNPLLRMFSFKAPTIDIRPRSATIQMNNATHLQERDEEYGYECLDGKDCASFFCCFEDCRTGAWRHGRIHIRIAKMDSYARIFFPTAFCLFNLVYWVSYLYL

human α1β3 GABAAR = target: T1, human α1β3 GABAAR (Homo sapiens, UniProt P14867+P28472); details: cited from earlier work
T1 sequence (P14867 28-456): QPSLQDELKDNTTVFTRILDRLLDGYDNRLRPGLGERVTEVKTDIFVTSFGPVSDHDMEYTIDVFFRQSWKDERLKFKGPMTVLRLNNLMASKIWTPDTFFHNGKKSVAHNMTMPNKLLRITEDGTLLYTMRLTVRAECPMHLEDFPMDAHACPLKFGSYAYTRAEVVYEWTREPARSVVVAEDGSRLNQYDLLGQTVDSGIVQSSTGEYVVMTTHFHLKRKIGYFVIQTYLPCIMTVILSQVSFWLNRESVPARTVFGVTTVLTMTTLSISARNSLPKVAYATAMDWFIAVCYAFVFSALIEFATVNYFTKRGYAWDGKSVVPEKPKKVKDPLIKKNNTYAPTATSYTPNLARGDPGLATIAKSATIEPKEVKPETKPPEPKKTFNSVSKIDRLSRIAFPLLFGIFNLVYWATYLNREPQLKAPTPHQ
T1 sequence (P28472 26-473): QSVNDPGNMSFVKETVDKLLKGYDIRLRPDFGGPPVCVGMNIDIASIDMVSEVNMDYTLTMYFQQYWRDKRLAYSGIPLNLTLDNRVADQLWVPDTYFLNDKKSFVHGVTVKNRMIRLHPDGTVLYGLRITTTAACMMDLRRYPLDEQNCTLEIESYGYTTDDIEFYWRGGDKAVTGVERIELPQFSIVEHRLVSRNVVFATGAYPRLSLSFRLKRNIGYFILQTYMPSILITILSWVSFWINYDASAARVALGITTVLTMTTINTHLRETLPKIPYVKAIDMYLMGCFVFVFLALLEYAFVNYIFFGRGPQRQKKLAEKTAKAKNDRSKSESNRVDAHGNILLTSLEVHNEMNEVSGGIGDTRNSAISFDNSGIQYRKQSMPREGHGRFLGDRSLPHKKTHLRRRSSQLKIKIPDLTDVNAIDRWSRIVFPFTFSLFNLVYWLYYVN

[7] = read-out: general anesthetic EC50
[8] = read-out: EC50, tadpole loss of righting reflex

With CCOC(=O)c1cncn1[C@H](C)c1ccccc1 [R-(+)-etomidate] as the compound, how does the EC50 (tadpoles; [7]) read?
The EC50 was 2.3 µM.

Which results are given for CCC1(c2ccccc2)C(=O)NC(=O)N(C)C1=O (stereo not drawn) [mephobarbital]?
octanol/water partition coefficient [1]: 69; pKa [2]: 7.65; solubility in water [3]: 600 µM (≈ 148 µg/mL); EC50 (tadpoles; [8]): 90 µM

Which EC50 (tadpoles; [8]) does the source give for C=CCC1(C(C)C#CCC)C(=O)N=C(O)N(C)C1=O (stereo not drawn) [methohexital] here?
Its EC50 is 20 µM.

Which pKa [4] does the source give for C=CCC1(c2cccc(C3(C(F)(F)F)N=N3)c2)C(=O)NC(=O)N(C)C1=O (racemic) [(±)-14, (±)-5-Allyl-1-methyl-5-[3-(3-trifluoromethyl-3H-diazirin-3-yl)-phenyl]-pyrimidine-2,4,6-trione] here?
The pKa was 7.48 ± 0.08.

And the “time stable in buffer” value [5]?
Its value is “at least 2.5 days”.

For CCCC(C)C1(CC)C(=O)NC(=O)NC1=O (stereo not drawn) [pentobarbital, 5-ethyl-5-(pentan-2-yl)pyrimidine-2,4,6(1H,3H,5H)-trione], which “fold potentiation of 10 μM GABA currents” value (GABAA receptor) is on record?
Its value is 4-6 fold.

What about the EC50 (tadpoles; read-out: EC50 producing anesthesia in tadpoles) of the same compound?
The EC50 was about 140 µM.

With CCC1(c2ccccc2)C(=O)NC(=O)NC1=O [phenobarbital] as the compound, how does the EC50 (tadpoles; [8]) read?
Its EC50 is 3300 µM.

For CC(C)c1cccc(C(C)C)c1O [propofol], which EC50 (tadpoles; [7]) is on record?
The EC50 was 2.2 µM.

Which “GABA nH in the presence of compound” value ([6]; 8 μM compound) does the source give for C=CC[C@@]1(c2cccc(C3(C(F)(F)F)N=N3)c2)C(=O)NC(=O)N(C)C1=O [R-(−)-14] here?
The value was 1.0 ± 0.1.

With C[C@H](c1ccccc1)n1cncc1C(=O)OCc1ccc(C2(C(F)(F)F)N=N2)cc1 [aryldiazirine analog of etomidate] as the compound, how does the “efficiency of α1β3 GABAAR subunit photolabeling” value (human α1β3 GABAAR) read?
Its value is 0.5%.

With NCCCC(=O)O [GABA, γ-aminobutyric acid] as the compound, how does the “GABA concentration response nH” value ([6]; GABA alone) read?
The value was 1.8 ± 0.1.
